Reference: patent US20240408008A1, “AN IN-SITU GELLING ENEMA OF RIFAMYCIN FOR TREATING POUCHITIS AND DISTAL ULCERATIVE COLITIS” (COSMO TECHNOLOGIES LTD., priority 2021, published 2024)
In brackets after ≈: the same amount, converted by molar mass.

What was measured:
Klebsiella oxytoca = assay: MIC, broth dilution; format: cell-based; conditions: aerobic
Rothia dentocariosa = assay: MIC, broth dilution; format: cell-based; conditions: DSM43762; Rothia dentocariosa (DSM 43762); aerobic
Streptococcus pyogenes = assay: MIC, broth dilution; format: cell-based; conditions: ATCC700460; Streptococcus pyogenes (ATCC 700460); aerobic
Enteroccocus faecium = assay: MIC, broth dilution; format: cell-based; conditions: aerobic
[1] = tested on: Faecalibacterium prausnitzii; assay: MIC, broth dilution; format: cell-based; conditions: anaerobic
B. longum = assay: MIC, broth dilution; format: cell-based; conditions: Bifidobacterium longum, anaerobic
B. adolescentis = assay: MIC, broth dilution; format: cell-based; conditions: Bifidobacterium adolescentis, DSM20083; B. adolescentis (DSM 20083); anaerobic
Ruminococcus gnavus = assay: MIC, broth dilution; format: cell-based; conditions: Mediterraneibacter gnavus, DSM108212; Ruminococcus gnavus (DSM 108212); anaerobic
Fusobacterium ulcerans = assay: MIC, broth dilution; format: cell-based; conditions: DSM19847; Fusobacterium ulcerans (DSM 19847); anaerobic
Eikenella corrodens = assay: MIC, broth dilution; format: cell-based; conditions: DSM8340; Eikenella corrodens (DSM 8340); anaerobic
Prevotella intermedia = assay: MIC, broth dilution; format: cell-based; conditions: DSM20706; Prevotella intermedia (DSM 20706); anaerobic
Veillonella parvula = assay: MIC, broth dilution; format: cell-based; conditions: DSM2007; Veillonella parvula DSM 2007; anaerobic
[2] = tested on: selected bacteria involved in pouchitis pathogenesis; assay: MIC, broth dilution, whole panel; format: cell-based; conditions: Gram-positive and Gram-negative, aerobic and anaerobic bacteria of Table 3
Source text: The Minimum Inhibitory Concentration (MIC) is defined as the lowest concentration expressed in mg/L (equivalent to μg/mL) of an antimicrobial ingredient or agent that is bacteriostatic (prevents the visible growth of bacteria). MICs are used to evaluate the antimicrobial efficacy of various compounds by measuring the effect of decreasing concentrations of antibiotic over a defined period in terms of inhibition of microbial population growth. MIC is generally regarded as the most basic laboratory measurement of the activity of an antimicrobial agent against an organism.
Antimicrobial characteristics of Rifamycin sodium salt was assessed on a panel of selected bacteria involved in pouchitis pathogenesis and a standard broth dilution method was used to determine the MIC of Rifamycin. Briefly, two-fold dilutions of the tested compounds were dispensed in 96 round bottom well plates, each dilution was processed in the liquid culture medium suitable for the tested bacterial species. Bacteria inocula were prepared by a suspension of the microbial strain in sterile water saline and adjusted to a concentration of 0.5McFarland standard corresponding to 1.5×10^8 CFU/ml. A final bacterial concentration of 0.5-1×10^5 CFU/ml was distributed in each well. […] MIC was recorded when there was visible growth in the positive growth control column (bacterial inoculum without test substance). […]

mTOR pathway = assay: Inhibition of mTOR and S6R phosphorylation in primary colonic epithelial cells, flow cytometry; format: cell-based, human
Procedure: To evaluate Rifamycin activity on the mTOR pathway, primary colonic epithelial cells were serum starved for 24 hr and restimulated with serum for 48 hr to induce phosphorylation of mTOR and its downstream target protein […]. Serum stimulated cells were treated with Rifamycin SV, Rifaximin, the positive control Rapamycin, or the negative vehicle control DMSO. Cells were fixed, stained with antibodies against pmTOR and pS6R then analyzed by flow cytometry.

DSS induced colitis = assay: Acute colitis induced by Dextran Sulfate Sodium (DSS); format: in vivo; conditions: mice, DSS 2%, enema 67 mg/kg
Procedure: In situ gel enema formulation batch 7663 (same formulation as batch 7639) in vivo efficacy was tested in a murine model of acute colitis induced by Dextran Sulfate Sodium (DSS). This animal model is perhaps the most widely used mouse model of colitis and employs DSS, a chemical colitogen with anticoagulant properties, to induce disease which closely resembles human UC. DSS induced intestinal inflammation results in damage to the epithelial monolayer lining the large intestine allowing the dissemination of proinflammatory intestinal contents (e.g. bacteria and their products) into underlying tissue.
For this study, a group of mice was treated by enema with Batch 7663 (indicated as CB0125 in the figures) (dose 45 mg/kg), one group was treated by enema with Placebo Batch 7679 as a comparator for 7663; a group was treated by enema with Rifamycin powder dissolved in water (67 mg/kg). One group of mice was treated orally PO with 5-ASA at the dose of 100 mg/Kg; this group was introduced as positive control. 5-ASA is the golden standard therapy for inflammatory bowel diseases, including UC, distal UC and proctitis. One group was treated by enema with the vehicle (H2O) only, as negative control.
Briefly DSS (2%) was dissolved in water (w/v) and given to mice in place of normal drinking water. DSS water was provided ad libitum for 5 days and was changed daily. This period was followed by a washout period of 5 days with water only. Mice were weighed daily and monitored for clinical status including hunching, mobility, soft stool and/or diarrhoea. At end of the study mice were sacrificed by CO2 inhalation. Immediately after euthanasia, the animals were laparatomyzed and intestine was exteriorized. The entire colon was isolated from the caecum to the anus, placed unstretched on a ruler and then measured and weighed after rinsing the lumen with saline. The weight was normalized to the colon length by calculating the ratio.
For histological analysis of colon samples, about 2 cm of the middle portion of isolated colon was fixed in a 10% formalin. Each fixed fragment was embedded in paraffin. The slides were stained with haematoxylin and eosin and assessed according to the histological score.

Work on `CO[C@H]1/C=C/O[C@@]2(C)Oc3c(C)c(O)c4c(O)c(cc(O)c4c3C2=O)NC(=O)/C(C)=C\C=C\[C@H](C)[C@H](O)[C@@H](C)[C@@H](O)[C@@H](C)[C@H](OC(C)=O)[C@@H]1C` [Rifamycin SV] yielded an MIC (Klebsiella oxytoca; DSM6673, Klebsiella oxytoca (DSM 6673)) of 128 µg/mL (≈ 183 µM), an MIC (Klebsiella oxytoca; Klebsiella oxytoca, ATCC700324, K. oxytoca (ATCC 700324)) of 200 µg/mL (≈ 287 µM) and an MIC (Klebsiella oxytoca; Klebsiella oxytoca, DSM4798, K. oxytoca (DSM 4798)) of 256 µg/mL (≈ 367 µM). The MIC (Klebsiella oxytoca; Klebsiella oxytoca, DSM5175, K. oxytoca (DSM 5175)) was 128 µg/mL (≈ 183 µM), the MIC (Rothia dentocariosa) was < 0.03 µg/mL and the MIC (Streptococcus pyogenes) was 0.5 µg/mL (≈ 0.717 µM). The MIC (Enteroccocus faecium; Enteroccocus faecium (0808711)) was 100 µg/mL (≈ 143 µM), the MIC (Enteroccocus faecium; Enterococcus faecium, DSM17050, E. faecium (DSM 17050)) was 64 µg/mL (≈ 91.7 µM) and the MIC (Enteroccocus faecium; Enterococcus faecium, DSM25697, E. faecium (DSM 25697)) was 1 µg/mL (≈ 1.43 µM). The MIC (Enteroccocus faecium; Enterococcus faecium, E. faecium (09006056)) was 100 µg/mL (≈ 143 µM), the MIC (Enteroccocus faecium; Enterococcus faecium, E. faecium (DSM13590)) was 32 µg/mL (≈ 45.9 µM) and the MIC ([1]; DSM107839, Faecalibacterium prausnitzii (DSM 107839)) was 0.06 µg/mL (≈ 0.086 µM). For the same compound, the MIC ([1]; Faecalibacterium prausnitzii, DSM17677, F. prausnitzii (DSM 17677)) was < 0.03 µg/mL, the MIC ([1]; Faecalibacterium prausnitzii, DSM107838, F. prausnitzii (DSM 107838)) was < 0.03 µg/mL and the MIC ([1]; Faecalibacterium prausnitzii, DSM107840, F. prausnitzii (DSM 107840)) was < 0.03 µg/mL. The MIC (B. longum; DSM20088, B. longum (DSM 20088)) was 0.5 µg/mL (≈ 0.717 µM), the MIC (B. longum; DSM20090, B. longum (DSM 20090)) was 0.25 µg/mL (≈ 0.358 µM) and the MIC (B. adolescentis) was 1 µg/mL (≈ 1.43 µM). For the same compound, the MIC (Ruminococcus gnavus) was < 0.03 µg/mL, the MIC (Fusobacterium ulcerans) was 16 µg/mL (≈ 22.9 µM) and the MIC (Eikenella corrodens) was < 0.3 µg/mL. For the same compound, the MIC (Prevotella intermedia) was < 0.3 µg/mL, the MIC (Veillonella parvula) was < 0.03 µg/mL and the “antimicrobial activity in vitro” value [2] was “powerful antimicrobial activity”. For the same compound, the IC50 (mTOR pathway; Homo sapiens, Epithelial cell, serum stimulated primary colonic epithelial cells, 48 hr, read-out: IC50, % cells positive for anti-pmTOR and anti-pS6R relative to DMSO) was 9.9 µM, the “mTOR pathway potency, fold less potent than Rapamycin” value (mTOR pathway; ratio of IC50) was 20 fold and the “mTOR pathway potency, fold more potent than Rifaximin” value (mTOR pathway; ratio of IC50) was 4 fold. For the same compound, the histological score (DSS induced colitis; compared to 7663) was “lower improvement”, the “clinical score AUC” value (DSS induced colitis; compared to batch 7663) was “lower efficacy” and the cumulative stool score (DSS induced colitis; vs vehicle) was “significant improvement”.
